Laboratory results reported in patent publication US20190106747A1, “DRUGS, PHARMACOGENOMICS AND BIOMARKERS FOR ACIVE LONGEVITY” (Indiana University Research and Technology Corporation, priority 2016, published 2019).

Experiments:
[1] = test system: MME; details: Table 5 biomarkers in males; longevity direction of change D; cited from earlier work
[2] = biological target: T1, PLA2G6 (Homo sapiens, UniProt O60733); details: existing drug targeting top longevity biomarker; cited from earlier work
T1 sequence (O60733 1-806): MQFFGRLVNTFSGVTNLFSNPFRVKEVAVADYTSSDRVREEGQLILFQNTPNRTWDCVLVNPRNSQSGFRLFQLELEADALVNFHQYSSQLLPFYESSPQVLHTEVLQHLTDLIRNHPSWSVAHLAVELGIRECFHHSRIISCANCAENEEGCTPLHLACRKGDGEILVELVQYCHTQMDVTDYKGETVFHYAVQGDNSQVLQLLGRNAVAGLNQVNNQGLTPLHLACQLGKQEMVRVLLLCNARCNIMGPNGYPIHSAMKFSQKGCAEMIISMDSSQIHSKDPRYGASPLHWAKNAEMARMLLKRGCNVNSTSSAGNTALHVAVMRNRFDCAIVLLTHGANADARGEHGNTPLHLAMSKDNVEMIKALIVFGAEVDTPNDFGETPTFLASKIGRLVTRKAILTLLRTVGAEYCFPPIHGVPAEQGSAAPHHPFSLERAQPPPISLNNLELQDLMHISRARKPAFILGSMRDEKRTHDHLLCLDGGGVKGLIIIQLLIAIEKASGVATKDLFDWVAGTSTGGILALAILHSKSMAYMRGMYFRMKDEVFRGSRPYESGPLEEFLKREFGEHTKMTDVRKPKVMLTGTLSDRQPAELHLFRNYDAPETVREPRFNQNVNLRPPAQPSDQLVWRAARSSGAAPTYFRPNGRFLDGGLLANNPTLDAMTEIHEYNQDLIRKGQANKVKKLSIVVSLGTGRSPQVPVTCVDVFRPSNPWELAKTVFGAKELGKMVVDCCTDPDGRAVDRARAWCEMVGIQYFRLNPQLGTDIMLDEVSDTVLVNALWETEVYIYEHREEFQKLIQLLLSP

[3] = test system: worms; details: direct prior experimental evidence; cited from earlier work
[4] = test system: NAV1; details: Table 4 universal biomarkers; longevity direction of change D; cited from earlier work
[5] = biological target: ABCC1 (Homo sapiens, UniProt P33527); details: existing drug targeting top longevity biomarker; cited from earlier work
[6] = test system: ANK3; details: amygdala of a mouse model of mood disorders and stress; previous work; cited from earlier work
[7] = test system: POLH; details: Table 4 universal biomarkers; longevity direction of change I; cited from earlier work
[8] = test system: C. elegans; test: Lifespan of C. elegans treated with Mianserin; format: in vivo; details: for increase in lifespan: 50 μM Mianserin vs water
Experimental: FIG. 4B is a graph depicting lifespan curves of wt and unc-44(e362) animals treated with water or 50 μM Mianserin. […] (Y-axis) as a function of time [days] (X-axis). Dotted lines represent wt (N2) animals and bold lines represent unc-44(e362) mutants. Black: solvent control; red: Mianserin 50 μM. […] Asterisks indicate P values (**; P<0.01, ***P<0.001).
FIG. 4C is a graph depicting mean increase in lifespan [%] (Y-axis) as a function of Mianserin concentration [μM] (X-axis). Solid red line represents unc-44(e362) animals. Dotted red line represents the parallel control experiment of Mianserin-treated wt (N2) animals. Error bars show standard deviation for experimental replicates.

[9] = test system: C. elegans; test: Survival after paraquat (oxidative stress) in Mianserin-treated C. elegans; format: in vivo; details: three independent alleles (e362, e1197, e1260) of ANK3/unc-44; 50 μM Mianserin from day 1 adult, paraquat five days later
Experimental: FIG. 4A are graphs depicting Mianserin-induced protection from oxidative stress requires ANK3/unc-44, the C. elegans homolog of mammalian ANK3. Wild-type (wt) N2 strain (dotted lines) or ANK3/unc-44 mutants (bold lines), at day 1 adult stage, were treated with water (black) or 50 μM Mianserin (red), followed by increasing concentrations of paraquat five days later. Survival of animals was determined 24 h after paraquat addition and plotted in [%] (Y-axis) as a function of paraquat concentration [mM] (X-axis). Parallel wt (N2) control experiments (dotted lines) are shown for each graph. […] All error bars show S.E.M for 3 to 4 independent experiments.

Sequence of ABCC1 (P33527 whole entry): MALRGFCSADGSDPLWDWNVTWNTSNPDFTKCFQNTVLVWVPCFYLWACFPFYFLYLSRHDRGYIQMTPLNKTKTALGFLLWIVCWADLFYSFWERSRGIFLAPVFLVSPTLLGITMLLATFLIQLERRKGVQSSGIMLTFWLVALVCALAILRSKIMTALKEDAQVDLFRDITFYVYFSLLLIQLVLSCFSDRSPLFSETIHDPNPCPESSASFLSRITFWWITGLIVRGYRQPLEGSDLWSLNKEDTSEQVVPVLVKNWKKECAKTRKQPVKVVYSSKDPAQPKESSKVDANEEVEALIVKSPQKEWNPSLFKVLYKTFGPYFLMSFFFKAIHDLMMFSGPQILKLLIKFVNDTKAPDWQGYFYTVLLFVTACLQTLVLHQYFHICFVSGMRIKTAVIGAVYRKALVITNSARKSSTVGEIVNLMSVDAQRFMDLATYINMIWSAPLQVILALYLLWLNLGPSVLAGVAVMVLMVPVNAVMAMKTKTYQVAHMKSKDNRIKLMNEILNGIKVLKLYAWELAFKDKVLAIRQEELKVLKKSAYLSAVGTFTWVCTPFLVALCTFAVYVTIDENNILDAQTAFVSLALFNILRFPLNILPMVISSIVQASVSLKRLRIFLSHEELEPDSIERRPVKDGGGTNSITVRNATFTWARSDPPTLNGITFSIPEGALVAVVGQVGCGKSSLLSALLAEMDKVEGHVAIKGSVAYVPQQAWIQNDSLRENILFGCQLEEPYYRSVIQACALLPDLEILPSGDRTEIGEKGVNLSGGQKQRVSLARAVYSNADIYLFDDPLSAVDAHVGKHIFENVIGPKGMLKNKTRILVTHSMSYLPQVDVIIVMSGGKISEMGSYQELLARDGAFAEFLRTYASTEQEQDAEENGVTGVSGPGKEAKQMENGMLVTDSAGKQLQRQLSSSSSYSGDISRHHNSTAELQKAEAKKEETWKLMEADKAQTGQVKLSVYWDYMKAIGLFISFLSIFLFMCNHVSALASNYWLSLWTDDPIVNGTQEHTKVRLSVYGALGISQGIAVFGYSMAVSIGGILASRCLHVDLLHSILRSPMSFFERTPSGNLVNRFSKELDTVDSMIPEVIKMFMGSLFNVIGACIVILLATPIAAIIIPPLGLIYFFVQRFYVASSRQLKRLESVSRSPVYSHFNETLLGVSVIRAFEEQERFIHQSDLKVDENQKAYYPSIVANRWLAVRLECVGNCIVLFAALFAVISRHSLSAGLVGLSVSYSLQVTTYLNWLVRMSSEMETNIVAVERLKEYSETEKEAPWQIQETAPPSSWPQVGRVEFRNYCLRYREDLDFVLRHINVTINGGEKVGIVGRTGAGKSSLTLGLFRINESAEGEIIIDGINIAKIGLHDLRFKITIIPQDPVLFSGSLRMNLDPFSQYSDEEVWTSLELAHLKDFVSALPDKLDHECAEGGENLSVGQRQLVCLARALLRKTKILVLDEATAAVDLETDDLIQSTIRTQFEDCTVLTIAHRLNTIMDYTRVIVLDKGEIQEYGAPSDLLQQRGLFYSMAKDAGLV

sacubitril/valsartan
MME modulated by drug in the same direction as longevity [1]: sacubitril/

CCN(CC)CCCC(C)Nc1c2ccc(Cl)cc2nc2ccc(OC)cc12 (racemic) [quinacrine, (RS)—N′-(6-Chloro-2-methoxy-acridin-9-yl)-N,N-diethylpentane-1,4-diamine]
effect on PLA2G6 [2]: inhibiting

C[C@]12CC[C@@H]3c4ccc(O)cc4CC[C@H]3[C@@H]1CC[C@@H]2O [estradiol, (8R,9S,13S,14S,17S)-13-methyl-6,7,8,9,11,12,14,15,16,17-decahydrocyclopenta[a]phenanthrene-3,17-diol]
lifespan [3]: extending lifespan

COc1ccc(C(CN(C)C)C2(O)CCCCC2)cc1 (centres unmarked) [Venlafaxine]
NAV1 modulated by drug in the same direction as longevity [4]: Venlafaxine

O=C1C(CC[S+]([O-])c2ccccc2)C(=O)N(c2ccccc2)N1c1ccccc1 (centres unmarked) [sulfinpyrazone, 1,2-diphenyl-4-[2-(phenylsulfinyl)ethyl]pyrazolidine-3,5-dione]
effect on ABCC1 [5]: inhibiting

CC/C=C\C/C=C\C/C=C\C/C=C\C/C=C\C/C=C\CCC(=O)O [DHA]
ANK3 expression [6]: decreased

NC(=O)N1c2ccccc2C=Cc2ccccc21 [Carbamazepine]
POLH modulated by drug in the same direction as longevity [7]: Carbamazepine

CN1CCN2c3ccccc3Cc3ccccc3C2C1 (racemic) [Mianserin, (±)-2-methyl-1,2,3,4,10,14b-hexahydrodibenzo[c,f]pyrazino[1,2-a]azepine]
lifespan extension as a function of Mianserin concentration ([8]; ANK3/unc-44(e362) mutants, any Mianserin concentration): No lifespan extension | increase in lifespan ([8]; unc-44(e362) mutant animals): −9% | increase in lifespan ([8]; wild-type (N2) animals): +40% | resistance to oxidative stress (survival 24 h after paraquat) [9]: failed to increase resistance to oxidative stress
